Where two headings read alike, the source gives them in different places.
Key:
herpes simplex virus = settings: long-term suppressive treatment; cited from earlier work
[1] = single dose
HSV-2 = experiment: qPCR of HSV DNA copy number in dorsal root ganglia at day 28; assay type: in vivo, BALB/c mice
[2] = cited from earlier work
HSV-2 MS strain = assay type: in vivo, BALB/c mice; settings: for Survival (surviving/total mice): 28 days; for Clinical Scores Overall Mean: daily vaginal clinical score, 4-point system of Table 4
[3] = cited from earlier work; remark: listed apart in the source
HSV infected cells = settings: in HSV infected cells; cited from earlier work
in vivo = settings: female, BALB/c, mouse
[4] = for quantifiable in at least 1 of 3 mice through: PCV
[5] = Group 2: Valcyclovir 125 mg/kg po
[6] = Group 1 HSV-2 A 125 mg/kg PO daily
[7] = Group 2 HSV-2 B 63 mg/kg PO daily

CC(C)[C@H](N)C(=O)OCCOCn1cnc2c(=O)[nH]c(N)nc21 [A, Valacyclovir]
reduction of transmission risk (herpes simplex virus): 46% | Clinical Observations: Dead (animals) [1, 5]: 0 | Clinical Observations: Hypoactivity (animals) [1, 5]: 0 | Clinical Observations: Normal (animals) [1, 5]: 12 | Clinical Observations: Ruffled Fur (animals) [1, 5]: 0 | Clinical Observations: Shoveling (animals) [1, 5]: 0 | Clinical Observations: Squinting (animals) [1, 5]: 0 | Number Undetectable <3 (qPCR copy number/rxn) (HSV-2; [6]): 5 | qPCR Copy number/rxn Overall Mean (HSV-2; [6]): 4.92 Copy number/rxn | half-life ([2]; approximately): 2.5 to 3.4 h | Mean AUC ([2]; in vivo): 2270 to 19620 ng·h/mL | time to reach maximum concentration ([2]; in vivo): 1.6 to 1.9 h | clinical score index (fraction of mice with a clinical score) (HSV-2 MS strain; Group 1 (A alone), A 125 mg/kg): 0.5 | Clinical (mice that had a clinical score/total) (HSV-2 MS strain; [6]): 5/10 | Hair loss (mice that had hair loss/total) (HSV-2 MS strain; [6]): 8/10 | Illness (mice that had an illness score/total) (HSV-2 MS strain; [6]): 10/10 | Survival (surviving/total mice) (HSV-2 MS strain; [6]): 10/10 | Clinical Scores Overall Mean (HSV-2 MS strain; [6]): 0.07413 | protein binding [3]: < 15%

CC(=O)OCC(CCn1cnc2cnc(N)nc21)COC(C)=O [B, Famciclovir]
intracellular half-life (HSV infected cells): 10 to 20 h | Clinical Observations: Dead (animals) ([1]; Group 3: Famcyclovir 63 mg/kg po, died during first blood collection): 1 | Clinical Observations: Dead (animals) ([1]; Group 3: Famcyclovir 63 mg/kg po, died during first blood collection, listed as FCV): another animal died | Number Undetectable <3 (qPCR copy number/rxn) (HSV-2; [7]): 2 | qPCR Copy number/rxn Overall Mean (HSV-2; [7]): 28.32 Copy number/rxn | bioavailability ([2]; in vivo): 77% | plasma half-life ([2]; in vivo): 2 to 2.5 h | time to reach maximum concentration ([2]; in vivo): 0.5 to 0.75 h | clinical score index (fraction of mice with a clinical score) (HSV-2 MS strain; Group 2 (B alone), B 63 mg/kg): 0.8 | Clinical (mice that had a clinical score/total) (HSV-2 MS strain; [7]): 8/10 | Hair loss (mice that had hair loss/total) (HSV-2 MS strain; [7]): 6/10 | Illness (mice that had an illness score/total) (HSV-2 MS strain; [7]): 9/10 | Survival (surviving/total mice) (HSV-2 MS strain; [7]): 9/10 | Clinical Scores Overall Mean (HSV-2 MS strain; [7]): 0.3125

Nc1nc2c(ncn2CCC(CO)CO)c(=O)[nH]1 [PCV, penciclovir]
AUC(0-inf) (in vivo; iv, 63 mg/kg, AUCinf): 15200 ng·h/mL | AUC(0-t) (in vivo; iv, 63 mg/kg, AUClast): 15100 ± 2600 ng·h/mL | AUC(0-t) (in vivo; iv, 63 mg/kg, AUClast Mean): 15100 ng·h/mL | Cmax (in vivo; iv, 63 mg/kg, Cmax): 8800 ng/mL | Cmax (in vivo; iv, 63 mg/kg, Cmax Mean): 8800 ng/mL | Tmax (in vivo; iv, 63 mg/kg, Tmax, Group 1: 125 mg/kg VACV and 63 mg/kg FCV, iv, single dose, plasma): 0.083 h | half-life (in vivo; iv, 63 mg/kg, t1/2, Group 1: 125 mg/kg VACV and 63 mg/kg FCV, iv, single dose, plasma): 1.29 h | half-life (in vivo; iv, 63 mg/kg, t1/2, plasma PCV, Group 1: 125 mg/kg VACV and 63 mg/kg FCV iv): 1.29 h | AUC(0-inf) (in vivo; po, 16 mg/kg, AUCinf): 6200 ng·h/mL | AUC(0-t) (in vivo; po, 16 mg/kg, AUClast Mean): 6100 ng·h/mL | Cmax (in vivo; po, 16 mg/kg, Cmax Mean): 4590 ng/mL | Tmax (in vivo; po, 16 mg/kg, Tmax): 0.5 h | half-life (in vivo; po, 16 mg/kg, t1/2): 1.89 h | AUC(0-inf) (in vivo; po, 32 mg/kg, AUCinf): 5140 ng·h/mL | AUC(0-t) (in vivo; po, 32 mg/kg, AUClast Mean): 5010 ng·h/mL | Cmax (in vivo; po, 32 mg/kg, Cmax Mean): 3150 ng/mL | Tmax (in vivo; po, 32 mg/kg, Tmax): 0.5 h | half-life (in vivo; po, 32 mg/kg, t1/2): 2.34 h | AUC(0-inf) (in vivo; po, 63 mg/kg): 11300 ng·h/mL | AUC(0-t) (in vivo; po, 63 mg/kg): 10600 ± 727 ng·h/mL | Cmax (in vivo; po, 63 mg/kg): 8120 ± 565 ng/mL | Tmax (in vivo; po, 63 mg/kg): 0.25 h | half-life (in vivo; po, 63 mg/kg): 0.97 h | AUC(0-inf) (in vivo; po, 63 mg/kg, AUCinf): 19200 ng·h/mL | AUC(0-t) (in vivo; po, 63 mg/kg, AUClast Mean): 18400 ng·h/mL | Cmax (in vivo; po, 63 mg/kg, Cmax Mean): 7100 ng/mL | Tmax (in vivo; po, 63 mg/kg, Tmax): 0.5 h | half-life (in vivo; po, 63 mg/kg, t1/2): 2.34 h | AUC(0-inf) (in vivo; po, 125 mg/kg, AUCinf): 50900 ng·h/mL | AUC(0-t) (in vivo; po, 125 mg/kg, AUClast Mean): 50200 ng·h/mL | Cmax (in vivo; po, 125 mg/kg, Cmax Mean): 16900 ng/mL | half-life (in vivo; po, 125 mg/kg, t1/2): 1.31 h | AUC(0-inf) (in vivo; po, AUCinf): 85500 ng·h/mL | AUC(0-t) (in vivo; po, AUClast Mean): 84500 ng·h/mL | Cmax (in vivo; po, Cmax Mean): 31200 ng/mL | Tmax (in vivo; po, Tmax, Group 8: VACV 500 mg/kg and FCV 250 mg/kg in combination, po, plasma): 1 h | half-life (in vivo; po, t1/2, Group 8: VACV 500 mg/kg and FCV 250 mg/kg in combination, po, plasma): 4.3 h | half-life (in vivo; po, t1/2, plasma PCV, Group 8: 500 mg/kg VACV + 250 mg/kg FCV po): 4.3 h | t1/2 ([4]; Group 3: 63 mg/kg FCV, po, single dose, plasma): 0.97 h | quantifiable in at least 1 of 3 mice through ([4]; Group 1: 125 mg/kg VACV + 63 mg/kg FCV iv): 24 h | quantifiable in at least 1 of 3 mice through ([4]; Group 5: 63 mg/kg VACV + 32 mg/kg FCV po): 24 h | quantifiable in at least 1 of 3 mice through ([4]; Group 8: 500 mg/kg VACV + 250 mg/kg FCV po): 24 h | AUClast Mean ([4]; female, BALB/c, mouse, in vivo, po, 63 mg/kg): 10609 ng·h/mL
